# Settings: buffer; pH 7.4; 200.0 µM
row,SMILES,solubility kinetic
1,Cc1ccccc1NC(=O)CN1CCc2ccccc2C1,24.8 µg/mL
2,COc1ccc(N2CCN(S(=O)(=O)c3cn(C)c(=O)n(C)c3=O)CC2)cc1,17.9 µg/mL
3,NS(=O)(=O)c1ccc(NC(=O)c2ccc3c(c2)CCCC3)cc1,< 0.4 µg/mL
4,O=C(CSc1ccccn1)NC1CCCC1,> 35.4 µg/mL
5,Cc1c(C)n(CCCN(C)C)c2ncnc(NC3CCCCC3)c12,46.9 µg/mL
6,COc1ccc(C(=O)CC(=O)Nc2ccc([N+](=O)[O-])cc2)cc1,2.6 µg/mL
7,COc1cc(C)ccc1OCC(=O)NC1CCCCCC1,40.5 µg/mL
8,O=C(CNc1ccccc1F)Nc1cccc2ccccc12,10.4 µg/mL
9,Cc1nc(N)nc(SCc2ccc([N+](=O)[O-])cc2)c1N,16.1 µg/mL
10,CN1CCN(c2oc(/C=C/c3ccccc3)nc2C#N)CC1,40.3 µg/mL
11,COC(=O)c1c(C)[nH]c(C(=O)OCC(=O)c2ccc(C)s2)c1C,5.7 µg/mL
12,Cc1ccccc1SCC(=O)NCCCn1ccnc1,42.9 µg/mL
13,N#Cc1ccccc1COC(=O)c1ccc2c(c1)OCCO2,10.9 µg/mL
14,COC(=O)CSc1nc(NC#N)nc(NC(C)(C)C)n1,36.7 µg/mL
15,O=c1c2ccccc2[nH]c2ccccc12,4.7 µg/mL
16,Cn1c(-c2cc3ccccc3oc2=O)nc2ccccc21,2.5 µg/mL
17,N#Cc1c(Nc2ccccc2)c(C=O)c[nH]c1=O,> 35.9 µg/mL
18,CCn1c(C)nc([N+](=O)[O-])c1C(=O)O,> 29.9 µg/mL
19,NS(=O)(=O)c1cccc(NC(=O)CN2C(=O)C(=O)N(Cc3ccccc3)C2=O)c1,60.5 µg/mL
20,O=Cc1ccccc1OCCCOc1cccc2cccnc12,9.7 µg/mL
21,COC(=O)COc1ccc(S(=O)(=O)N2CCCCCC2)cc1C,39.3 µg/mL
22,COC(=O)c1ccccc1NC(=O)c1cc(C)no1,1.1 µg/mL
23,CS(=O)(=O)N1Cc2ccccc2CC1C(=O)O (stereo unspecified),> 38.3 µg/mL
24,NC(=O)NC(c1ccc(Cl)cc1)c1ccccc1Cl (stereo unspecified),> 44.3 µg/mL
25,CC1=C(C)C(O)N(Cc2ccccc2)C1=O (stereo unspecified),> 32.6 µg/mL

row,SMILES,solubility kinetic
1,CCN(CC(=O)Nc1ccc(NC(C)=O)cc1)C(=O)c1c(C)nn(-c2ccc(F)cc2)c1Cl,> 70.8 µg/mL
2,COc1cccc(CNC(=O)CC(NC(C)=O)c2ccccc2)c1 (stereo unspecified),> 49 µg/mL
3,O=C(COC(=O)c1cccs1)Nc1ccc(Cl)cn1,3.1 µg/mL
4,CCOc1ccc2[nH]c3ncccc3c(=O)c2c1,3.7 µg/mL
5,CC(Sc1nncn1C)C(=O)Nc1ccc2ccccc2c1 (stereo unspecified),> 46.9 µg/mL
6,O=C(NC1C2CC3CC(C2)CC1C3)c1ccc2c(c1)OCO2 (stereo unspecified),7.9 µg/mL
7,CCCn1c2c(c(=N)c3c1CCC3)CCC2.I,> 51.6 µg/mL
8,Cc1cc(C(=O)N2CCC3(CC2)OCCO3)no1,> 37.8 µg/mL
9,O=C(CN1C(=O)NC2(CCCC2)C1=O)NCc1ccc(Cl)cc1,> 50.4 µg/mL
10,CCN(CC)c1ccc(N=CN2CCOCC2)cc1,35.9 µg/mL
11,Nc1ccc(Oc2ncccn2)c(Cl)c1,> 33.2 µg/mL
12,O=C(O)c1ccc2c(=O)n3c(nc2c1)/C(=C/c1ccc(F)cc1)CC3,> 50.4 µg/mL
13,O=C1CN(C(=O)COC(=O)c2ccc(Br)o2)c2ccccc2N1,9.5 µg/mL
14,CC1CC1C(=O)OCC(=O)Nc1ccc(S(=O)(=O)N2CCOCC2)cc1 (stereo unspecified),> 57.4 µg/mL
15,CC(=O)Nc1ccc(S(=O)(=O)NC2CCCCCC2)cc1,35.1 µg/mL
16,O=C1CSC(c2cccc([N+](=O)[O-])c2)N1c1ccccc1 (stereo unspecified),41.4 µg/mL
17,Cc1cccc(N2CCN(C(=O)c3cccs3)CC2)c1C,23.8 µg/mL
18,Cc1cccc(OCc2nc3ccccc3n2C)c1.Cl,30.4 µg/mL
19,Cc1cccc(C(=O)N=c2sccn2C)c1[N+](=O)[O-],17.3 µg/mL
20,O=C(COC(=O)/C=C/c1cccc([N+](=O)[O-])c1)Nc1cccnc1Cl,2.1 µg/mL
21,COc1ccccc1-n1ccnc1SCC(=O)NC1CCCC1,45.3 µg/mL
22,O=C(NCc1ncc(C(F)(F)F)cc1Cl)Nc1ccccc1,3.1 µg/mL
23,O=C(Nc1ccc(F)cc1)NC1CCN(Cc2c(F)cccc2Cl)CC1,2.8 µg/mL
24,N=c1c2c(ncn1CCCO)Oc1cc(O)ccc1C2c1ccccc1 (stereo unspecified),35.3 µg/mL
25,COc1ccccc1CN(C)C(=O)c1cc(C)nc2ccccc12,> 48.1 µg/mL

row,SMILES,solubility kinetic
1,CCC(=O)N(CCc1ccccc1)Cc1cc2cccc(C)c2[nH]c1=O,2.3 µg/mL
2,O=S(=O)(c1ccccc1)N1CCc2ccccc2C1,< 0.6 µg/mL
3,Cc1ccccc1NC(=O)N1CCCN(c2ccc(C#N)cn2)CC1,> 50.3 µg/mL
4,CN1CC(=O)N(CC(=O)Nc2cccc3ccccc23)C1=O,> 44.6 µg/mL
5,Cc1ccc(C)c(C(=O)OCC(=O)N(C)c2ccccc2)c1,38 µg/mL
6,COc1ccc(C(=O)Nc2ccc(-c3n[nH]c(=S)o3)cc2)cc1,> 49.1 µg/mL
7,CCOC(=O)C1=C(N)c2ccccc2CC1C1CCCC1 (stereo unspecified),0.8 µg/mL
8,O=S(=O)(NC1=NCCCCC1)c1ccc(F)cc1,> 40.5 µg/mL
9,CC(C)(CO)NC(=O)C12CC3CC(CC(Br)(C3)C1)C2,> 49.5 µg/mL
10,COCCNC(=O)Cn1cc(/C=C(\C#N)C(=O)NC2CC2)c2ccccc21,> 55 µg/mL
11,CCc1cccc(NC(=O)CCCN2C(=O)NC(C)(C)C2=O)c1,> 47.6 µg/mL
12,O=S1(=O)c2cccc3cccc(c23)N1CCBr,17.7 µg/mL
13,CC(=O)N1CCc2cc(S(=O)(=O)N3CCCCC3C)ccc21 (stereo unspecified),9.4 µg/mL
14,COc1ccc(-c2cc3nc4n(c(=O)c3s2)CCCCC4)cc1,< 0.3 µg/mL
15,CCOc1ccccc1Nc1nnc(SCC(=O)N(C)C2CCS(=O)(=O)C2)s1 (stereo unspecified),> 66.4 µg/mL
16,CCCCCCCCOc1ccc(C2CC(=O)NC2=O)cc1 (stereo unspecified),< 0.6 µg/mL
17,CCn1c(SCc2ccccc2)nc2ccccc2c1=O,1.3 µg/mL
18,COc1ccc(NC(=O)CSc2nnc(-c3cccnc3)n2C)cc1,> 53.3 µg/mL
19,COc1cc(C(=O)N2CCN(c3ccccn3)CC2)cc(OC)c1OC,> 53.6 µg/mL
20,CCCOc1ccc2ccccc2c1/C=C1\SC(=O)NC1=O,> 47 µg/mL
21,Cn1c(SCc2ccccc2Cl)nc2c1c(=O)[nH]c(=O)n2C,0.4 µg/mL
22,Fc1ccc(NC(=S)N2CCc3[nH]c4ccccc4c3C2)cc1,1.2 µg/mL
23,Cc1ccc(C)c(OCC(O)CNC2CCCC2)c1.Cl (stereo unspecified),> 45 µg/mL
24,COCCOC(=O)c1sc2nc[nH]c(=O)c2c1C,> 40.2 µg/mL
25,O=C(O)CSCC(=O)NC1CCCc2ccccc21 (stereo unspecified),> 41.9 µg/mL

row,SMILES,solubility kinetic
1,Cc1ccc(NC(=O)CNC(=O)c2cccs2)c(O)c1,21.7 µg/mL
2,O=C(Nc1cccnc1)NC1CCCCC1,> 32.9 µg/mL
3,O=S(=O)(c1cc(Cl)ccc1Cl)N1CCc2ccccc21,< 0.7 µg/mL
4,c1ccc2[nH]c(CCCCc3nc4ccccc4[nH]3)nc2c1,43.4 µg/mL
5,Cc1ccc(C)c(NC(=S)N(C)C)c1,> 31.2 µg/mL
6,Cn1c(=NC(=O)c2cccc([N+](=O)[O-])c2)sc2ccccc21,< 0.2 µg/mL
7,CN(C(=O)/C=C/c1ccc(F)cc1)C1CCCCC1,> 39.2 µg/mL
8,COc1ccc(C(O)c2ncc(C(F)(F)F)cc2Cl)cc1 (stereo unspecified),> 47.7 µg/mL
9,COc1ccc(C(=O)NC23CC4CC(CC(C4)C2)C3)cc1,1 µg/mL
10,O=[N+]([O-])c1ccccc1-c1ccc(C(=S)N2CCCCC2)o1,11.8 µg/mL
11,C=CCNC(=O)c1cc(-c2cccnc2)nc2ccccc12,> 43.4 µg/mL
12,CC(=O)c1cn(CC(=O)Nc2ccccc2F)c2ccccc12,9.4 µg/mL
13,CN(CC(=O)Nc1cccc(C(F)(F)F)c1)C1=NS(=O)(=O)c2ccccc21,3.7 µg/mL
14,CCNC(=O)C(CCSC)NS(=O)(=O)c1ccc(C)cc1 (stereo unspecified),> 49.6 µg/mL
15,CCN(CC(=O)NCc1cccs1)C(=O)c1cccc(Cl)c1,> 50.5 µg/mL
16,Cc1ccc(NC(=S)NC2CCCC2)c(C)c1,33.3 µg/mL
17,Cc1sc(N)nc1-c1ccc2c(c1)OCCO2,19.5 µg/mL
18,O=Cc1cn(Cc2ccc(Br)cc2)c2ccccc12,< 0.7 µg/mL
19,COc1ccc(Cl)cc1N1C(=O)c2cccnc2C1=O,> 43.3 µg/mL
20,Cc1ccc2nc(C)c(C(=O)O)cc2c1,> 30.2 µg/mL
21,O=C(CC1NCCN(Cc2ccccc2)C1=O)Nc1ccccc1 (stereo unspecified),41.5 µg/mL
22,CCOC(=O)CN1C(=O)NC2(CCCc3ccccc32)C1=O (stereo unspecified),> 45.3 µg/mL
23,CCCNC(=O)COC(=O)c1ccc(-c2ccccc2)cc1,1 µg/mL
24,O=C(COc1ccccc1[N+](=O)[O-])Nc1cccc(S(=O)(=O)N2CCCC2)c1,3.5 µg/mL
25,Cc1ccc(S(=O)(=O)N2CCN(c3cccc(C)c3)CC2)cc1,< 0.4 µg/mL

row,SMILES,solubility kinetic
1,O=C(Nc1ccc(-c2ccccc2)cc1)c1ccccc1,1 µg/mL
2,FCCCOc1ccc(CN2CCN(c3ccccc3F)CC2)cc1,19.5 µg/mL
3,Cc1ccccc1C(N)c1ccncc1.Cl (stereo unspecified),> 40.7 µg/mL
4,Cc1cc(C)nc(NC(=O)c2ccc([N+](=O)[O-])c(C)c2)n1,13.3 µg/mL
5,Nc1nc(NCC2CCCO2)nc(Nc2cccc(F)c2)c1[N+](=O)[O-] (stereo unspecified),< 0.1 µg/mL
6,CC(=O)Nc1nonc1NC(=O)COc1ccccc1,> 41.4 µg/mL
7,COc1ccc(NC(=S)Nc2cccc(C(F)(F)F)c2)c(C)c1,8 µg/mL
8,COc1ccc(OC)c(S(=O)(=O)Nc2cc(C)on2)c1,> 44.7 µg/mL
9,O=C1CCc2ccc(NS(=O)(=O)c3ccc(F)cc3)cc2N1,> 48.1 µg/mL
10,Cn1c(=O)n(Cc2ccccc2)c(=O)c2c1nc1n2CCN1Cc1ccco1,51.8 µg/mL
11,Cc1ccc(NC(=O)C2CC(=O)N(C(C)c3ccccc3)C2)cc1 (stereo unspecified),> 48.4 µg/mL
12,COc1ccc(Nc2c(-c3ccco3)nc3ccc(C)cn23)cc1,0.5 µg/mL
13,Nc1cc(N)nc(SCCc2ccccc2)n1,> 36.9 µg/mL
14,CCOc1ccc2nc(SCC(=O)Nc3nonc3C)[nH]c2c1,2.2 µg/mL
15,O=C(O)c1ccc(N=Cc2c(O)[nH]c(=O)[nH]c2=O)cc1,> 41.3 µg/mL
16,COc1cc(NC(C)CCc2ccccc2)cc(OC)c1OC (stereo unspecified),> 47.3 µg/mL
17,CCc1c(C)c2ccc(O)c(CN3CCCC3)c2oc1=O,41.6 µg/mL
18,O=C(O)c1cccc(S(=O)(=O)Nc2ccc([N+](=O)[O-])cc2O)c1,45.3 µg/mL
19,S=C(Nc1ccccc1)NC1CCN(Cc2ccccc2)CC1,> 48.8 µg/mL
20,O=C1Nc2ccccc2C1=Nc1ccc(Cl)cc1,13.5 µg/mL
21,O=C(OCN1C(=O)c2ccccc2C1=O)c1cccc(OC(F)F)c1,0.9 µg/mL

# — PubChem BioAssay AID1996
